Literature values, collected in patent publication US20050058670A1, “Oral itraconazole composition which is not affected by ingested food and process for preparing same” (priority 2003, published 2005).

In the case of `CCC(C)n1ncn(-c2ccc(N3CCN(c4ccc(OCC5COC(Cn6cncn6)(c6ccc(Cl)cc6Cl)O5)cc4)CC3)cc2)c1=O` (stereo not shown) [Itraconazole], the solubility in water is given as “less than 1 μg/ml”.
